One assay deals with NF-κB. Description: NF-κB-driven luciferase reporter gene assay in DLBCL cells. Type of assay: cell-based. The following applies: OCI-Ly10 and U2932; 2 day drug treatment. As for the experimental part:
For the NF-κB-driven luciferase reporter gene assay, cells were transfected with the pGL4.32 [luc2P/NF-κB-RE/Hygro] plasmid (Promega, Madison, Wis.) using Nucleofector kit V and program 013 according to the manufacturer's protocol (Amaxa Biosystems, Gaithersburg, Md.). After 24 hours of transfection, cells were treated with test agents for 2 days and lysates were prepared using the Dual-Glo® Luciferase Assay System (Promega). Luciferase activities of each sample were measured using a TopCount NXT Microplate Scintillation and Luminescence Counter (Packard BioScience).
To knockdown IRF4, cells were transfected with Silencer® Select siRNA (small interfering RNA, Applied Biosystems) directed against IRF4, CRBN, or Silencer® Select Negative Control siRNAs at a final concentration of 0.2-1 μM using Nucleofector® Kit V for transfection. For IRF4 overexpression, cells were transfected with IRF4- or green fluorescent protein (GFP)-cytomegalovirus (CMV) expression plasmids (OriGene Technologies, Rockville, Md.) for 24 h using the Cell Line Nucleofector kit V as above-mentioned. After 24 hours of transfection, cells were treated with lenalidomide for 2 days before luciferase assay, RT-PCR gene expression analysis and Western blot. […]
Background: A reporter such as luciferase makes a cellular process visible.

Another assay relates to H929 cells. The assay can be described thus: Cell cycle progression (cells in S phase) in siRNA-transfected H929 cells. The format is cell-based. The following applies: 72 h treatment. As for the experimental part: The effect of CRBN in H929 cells was also evaluated. H929 cells were transfected with mock, negative control siRNA and CRBN-siRNA-7 for 24, 48, 72 and 96 h. Cells were treated 24 h after transfection with DMSO (0.1%), pomalidomide (1 μM), lenalidomide (10 μM) or 3-(5-amino-2-methyl-4-oxo-4H-quinazolin-3-yl)-piperidine-2,6-dione (“Compound B”) for 1, 2, 3 days and the effect on cell cycle and proliferation investigated. Lenalidomide, pomalidomide and Compound B induced a delay of cell cycle progression, measured as the decrease of the number of cells in S phase, in control mock and negative control siRNA-transfected cells after 72 h treatment (FIG. 2C). Knockdown of CRBN markedly abrogated immunomodulatory drugs-induced delay in cell cycle progression in H929 cells (FIG. 2C) from of 50 to 4% for lenalidomide, from 70 to 15% for pomalidomide, and from 65 to 22% for Compound B.

Data on one molecule can be found in patent publication US10047151B2, “Methods for the treatment of cancer and inflammatory diseases using cereblon as a predictor” (Celgene Corporation, priority 2011, dated 2018).

For the molecule `Nc1cccc2c1CN(C1CCC(=O)NC1=O)C2=O` (stereo not drawn) [lenalidomide, 3-(4-amino-1-oxo-1,3-dihydro-isoindol-2-yl)-piperidine-2,6-dione], in the assay with NF-κB, the “inhibition of transcriptional activity of NF-κB” value is listed as 32-56%. The “delay in cell cycle progression (decrease of the number of cells in S phase)” value is 4% in the assay on H929 cells (H929 cells with knockdown of CRBN); 50% in the assay on H929 cells (control mock and negative control siRNA-transfected H929 cells).
